Assay results from US5656721A, “Peptide derivatives” (Sandoz Ltd., priority 1986, dated 1997).
Read-outs that look alike come from different tables or passages of the source. Starred links: 1 amine or outer side, 2 acyl side, 3 side chain; linkers in the order of their positions; H or OH if unused. Positions of bridges follow the written chain, without caps; N, C: chain ends. Non-standard residues stand in square brackets, D forms with d. Residues, ends and D or L forms follow the SMILES beside them. X1 = O=C([C@@H](Cc1ccccc1)N(C[C@@]1(O)OC[C@@H](O)[C@@H](O[C@H]2O[C@H](CO)[C@@H](O)[C@H](O)[C@H]2O)[C@@H]1O)[*:1])[*:2]; X3 = O=C([C@@H](Cc1ccccc1)N(C[C@@]1(O)OC[C@@H](O)[C@@H](O)[C@@H]1O)[*:1])[*:2]; X2 = O=C([C@H](CS[*:3])N(C[C@@]1(O)OC[C@@H](O)[C@@H](O)[C@@H]1O)[*:1])[*:2]; Thr(ol) = C[C@@H](O)[C@H](N)CO

Key:
GH level in the serum [1] = format: in vivo, rats
Protocol: Male rats are decapitated and blood is collected 1 hour after administering the GH secrection inhibiting compound in several logarithmically spaced doses. The GH level in the serum is determined means of RIA. In this test, these compounds of the invention are active at doses from about 0.02 to about 30 microgram/kg s.c.

[2] = Elimination through bile and urine in anaesthetized cannulated rats after s.c. administration; conditions: male, rat, in vivo, sc, 10 microgram/kg
Protocol: Additionally the compounds of the invention advantageously are eliminated to a greater extent through the kidneys. This may be observed in standard tests.
Fasted Male rats (225-375 g) are administered orally with water (50 ml/kg). After 30 minutes the animals are anaesthetized with e.g. Inactin (100 mg/kg i.p.). The bile duct and bladder are cannulated. Both V. jugularis are exposed. In one vein an infusion of glucose 5% with ethanol 1% is administered (5 ml/hr) to stimulate diuresis. The other vein is used to take blood samples (0.5 ml) every hour over 4 hours.
The compound of the invention and the unmodified peptide is administered s.c. at a dose of from about 10 to about 1000 microgram/Kg. The concentration of the compound is determined in conventional manner e.g. by RIA.
In the above test for example the following results have been obtained with the example 2 compound and octreotide at a dose of 10 microgram/kg: […]

[3] = test system: GH (growth hormone) secretion; assay: GH concentration in blood of fasted rhesus monkeys after p.o. administration; format: in vivo; conditions: for duration of GH lowering effect: p.o., example 2 at 0.1 mg/kg, lowering by at least 50 per cent
Protocol: Compounds of the invention which inhibit GH (growth hormone) secretion, especially the compounds of formula VIII, and more especially compounds of formula VIII a to f, and reduce the GH concentrations in the blood, may be tested as follows: Fasted rhesus monkeys (at least 5 monkeys) in primate chairs receive the compound of the invention in a piece of banana as vehicle. The compounds are administered at a dose of from about 0.1 mg/kg to about 10 mg/kg p.o. Blood is taken from the […] via a catheter. The GH concentration in the blood is measured by RIA (radio immunoassay).

gastric acid secretion = assay: Gastric acid secretion in fasted rats with stomach fistula; format: in vivo; conditions: for duration of increased stomach pH / pH of the stomach juice reached: by stomach tube
Protocol: The activity of these compounds is observed in e.g. the following test: GH secretion inhibiting compounds of the invention are administered to fasted rats with fistula implanted in their stomach in doses from about 0.05 mg/kg to about 5 mg/kg by stomach tune. After 1 hour the fistula is opened. The stomach Juice is collected in 30 minute periods. The collected volumes are registered and the acid concentration determined.

[4] = Bioavailability test, oral or intravenous administration, blood detection by radioimmunoassay; format: in vivo, dogs
Excerpt: The compounds of the invention may be compared with the unmodified peptides in standard bioavailability tests.
The compounds of the invention, for example, may be detected in the blood plasma for a longer period after administration than the unmodified peptides, as indicated in standard bioavailability experiments.
The compounds of the invention and the unmodified peptide may be administered to for example dogs in a single dose sufficient to produce a therapeutic effect by oral or intravenous administration.
Doses used are those which permit the peptide or a metabolite thereof to be detected in the blood. Detection may be effected in conventional manner, e.g. by radioimmunoassay.

[5] = Absorption on oral administration, plasma levels by RIA; format: in vivo, OFA rats; conditions: OFA, rat, 10 mg/kg; for level at 0.25 h: 15 mins., read-out: Rat plasma levels following oral administration, 15 mins.; for level at 0.5 h: 30 mins., read-out: Rat plasma levels following oral administration, 30 mins.; for level at 1 h: 60 mins., read-out: Rat plasma levels following oral administration, 60 mins.
Protocol: Improved absorption on oral administration may be detected for the compounds of the invention as follows:
The compound of the invention and the unmodified analogue are administered orally to OFA rats (e.g. 10 mg/kg). After definite periods of time, e.g. 15, 30 and 60 minutes, blood samples are collected, These are analysed for their drug content by e.g. RIA.

GH level in the serum [6] = assay: GH-reducing activity in male rats having oestradiol implants; format: in vivo; conditions: oestradiol-implanted male rats
Protocol: The GH-reducing activity of these compounds is also observed after oral application to male rats having oestradiol implants. In this test there are relatively small variations in the GH level, The test is carried out as follows:
A loop (length 50 mm .0. 3 mm) of silastic with 50 mg of oestradiol is implanted under ether anaesthesis under the dorsal skin of male rats which have a weight of ca. 300 g. At various times (1 to 6 months later), these animals are used repeatedly for tests. The test substance is administered either s.c. or orally.
Directly before, as well as at various times after administration of the substance, ca. 0.8 ml of blood is removed from the retro-orbital plexus. It is centrifuged and the GH level in the serum is determined by RIA.

[7] = test system: calcium level in the blood; assay: Hypocalcemic activity, calcium level in the blood after i.v. administration; format: in vivo; conditions: dogs, 5 μg/kg
Excerpt: The sugar derivatives of calcitonin and of calcitonin analogues or derivatives according to the invention, more especially the derivatives of formula X reduce the calcium plasma level. Moreover, they are functional antagonists of the parathormone, and effect a positive calcium balance in the bones. The hypocalcemic activity of the new compounds may be measured in known manner, e.g. according to the method of M. Azria et al., reported in the Calcitonin 1984 Symposium, 24th October, Milan and published as "Short Communication" in "Current Clinical Practice Series" No. 42, Excerpta Medica 1986, page 104. In this method, a Ca^2+ -ion selective electrode is used, so that the content of calcium ions in the blood of young rabbits or dogs may be continuously measured. The compounds are administered i.v. at a dosage of from about 0.1 to about 10 micrograms/kg, e.g. conforming to ca. 1 international unit per kg. […]
It has for example been determined that each of the compounds of examples 37 and 38 have a duration of action that is much longer than with the unmodified peptide, when administered i.v. to dogs (5 μg/kg).

[8] = s.c., male rats, 1 hour after administration

Compound: C[C@@H](O)[C@@H]1NC(=O)[C@H](CCCCN)NC(=O)[C@@H](Cc2c[nH]c3ccccc23)NC(=O)[C@H](Cc2ccccc2)NC(=O)[C@@H](NC(=O)[C@@H](Cc2ccccc2)NC[C@@]2(O)OC[C@@H](O)[C@@H](O)[C@@H]2O)CSSC[C@@H](C(=O)N[C@H](CO)[C@@H](C)O)NC1=O [Example 1] (H-[X3]CF[dW]KTC[Thr(ol)]; disulfide 2-7)
- ID50 (amount required to lower the GH content by 50%) (GH level in the serum [1]; rat, in vivo, sc): 0.045 microgram/kg

Compound: C[C@@H](O)[C@@H]1NC(=O)[C@H](CCCCN)NC(=O)[C@@H](Cc2c[nH]c3ccccc23)NC(=O)[C@H](Cc2ccccc2)NC(=O)[C@@H](NC(=O)[C@@H](Cc2ccccc2)NC[C@@]2(O)OC[C@@H](O)[C@@H](O[C@H]3O[C@H](CO)[C@@H](O)[C@H](O)[C@H]3O)[C@@H]2O)CSSC[C@@H](C(=O)N[C@H](CO)[C@@H](C)O)NC1=O [Example 2, N^α -[α-glucosyl(1-4)-dioxyfructosyl)-SMS] (H-[X1]CF[dW]KTC[Thr(ol)]; disulfide 2-7)
- dose excreted ([2]; Percentage eliminated through Bile): 1.6%
- dose excreted ([2]; Percentage eliminated through Urine): 36%
- ID50 (amount required to lower the GH content by 50%) (GH level in the serum [1]; [8]): 0.190 microgram/kg
- lowering of GH secretion ([3]; 0.1 mg/kg p.o.): at least 50 per cent
- duration of GH lowering effect [3]: > 10 h
- duration of increased stomach pH (gastric acid secretion): 3,5 hours
- pH of the stomach juice reached (gastric acid secretion): 6-8 pH
- activity relative to cimetidine (gastric acid secretion; compared with cimetidine): at least 60 times
- elimination half-life ([4]; intravenous administration): about 2,3 hours
- blood concentration on oral administration compared with octreotide ([4]; oral administration, relative to octreotide): ten fold higher
- absolute bioavailability on the basis of the AUC, relative to octreotide ([4]; orally and intravenously administered, relative to octreotide): 5 times

Compound: C[C@@H](O)[C@@H]1NC(=O)[C@H](CCCCN)NC(=O)[C@@H](Cc2c[nH]c3ccccc23)NC(=O)[C@H](Cc2ccccc2)NC(=O)[C@@H](NC(=O)[C@@H](Cc2ccccc2)NC(=O)[C@H]2OC(O)[C@H](O)[C@@H](O)[C@@H]2O)CSSC[C@@H](C(=O)N[C@H](CO)[C@@H](C)O)NC1=O (stereo partly shown) [Example 21]
- ID50 (amount required to lower the GH content by 50%) (GH level in the serum [1]; rat, in vivo, sc): 0.3 microgram/kg

Compound: CC[C@H](C)[C@@H]1NC(=O)[C@H](Cc2ccc(O)cc2)NC(=O)[C@@H](NC[C@@]2(O)OC[C@@H](O)[C@@H](O)[C@@H]2O)CSSC[C@@H](C(=O)N2CCC[C@H]2C(=O)N[C@@H](CC(C)C)C(=O)NCC(N)=O)NC(=O)[C@H](CC(N)=O)NC(=O)[C@H](CCC(N)=O)NC1=O [Example 44, [N-deoxy-fructosyl-Cys^1]-oxytocin] (H-[X2]YIQNCPLG-NH2; disulfide 1-6; C-terminus assumed)
- level at 0.25 h [5]: 11.8 ng/mL
- level at 0.5 h [5]: 6.98 ng/mL
- level at 1 h [5]: 3.98 ng/mL

Compound: C[C@@H](O)[C@@H]1NC(=O)[C@H](CCCCN)NC(=O)[C@@H](Cc2c[nH]c3ccccc23)NC(=O)[C@H](Cc2ccccc2)NC(=O)[C@@H](NC(=O)[C@H](N)Cc2ccccc2)CSSC[C@@H](C(=O)N[C@H](CO)[C@@H](C)O)NC1=O [Octreotide, reference compound]
- dose excreted ([2]; rats, 10 microgram/kg s.c., read-out: Percentage eliminated through Bile): 22%
- dose excreted ([2]; rats, 10 microgram/kg s.c., read-out: Percentage eliminated through Urine): 19%
- ID50 p.o. (GH level in the serum [6]): 1400 microgram/kg
- duration of GH lowering effect [3]: 5 h
- duration of increased stomach pH (gastric acid secretion): 2 hours
- pH of the stomach juice reached (gastric acid secretion): 6-7 pH
- half-life ([4]; dog, blood, intravenous administration, read-out: elimination half-life (converted)): ~30 min

Compound: C[C@H](N)C(=O)NCC(=O)N[C@H]1CSSC[C@@H](C(=O)O)NC(=O)[C@H](CO)NC(=O)[C@H]([C@@H](C)O)NC(=O)[C@H](Cc2ccccc2)NC(=O)[C@H]([C@@H](C)O)NC(=O)[C@H](CCCCN)NC(=O)[C@H](Cc2c[nH]c3ccccc23)NC(=O)[C@H](Cc2ccccc2)NC(=O)[C@H](Cc2ccccc2)NC(=O)[C@H](CC(N)=O)NC(=O)[C@H](CCCCN)NC1=O [natural stomatostatin, reference compound]
- ID50 (amount required to lower the GH content by 50%) (GH level in the serum [1]; [8]): 93 microgram/kg

Compound: CC[C@H](C)[C@@H]1NC(=O)[C@H](Cc2ccc(O)cc2)NC(=O)[C@@H](N)CSSC[C@@H](C(=O)N2CCC[C@H]2C(=O)N[C@@H](CC(C)C)C(=O)NCC(N)=O)NC(=O)[C@H](CC(N)=O)NC(=O)[C@H](CCC(N)=O)NC1=O [oxytocin, reference compound]
- level at 0.25 h [5]: 7.53 ng/mL
- level at 0.5 h [5]: 3.6 ng/mL
- level at 1 h [5]: 2.55 ng/mL

Compound: N^α -isocaproyl-des(1-4)-[Ala^7,Nε-(1-deoxyfructosyl)-Lys^11,1 8 ]salmon Calcitonin [Example 37]
- duration of action compared with the unmodified peptide [7]: much longer
- reduction in the calcium level in the blood after 6 hours [7]: still as pronounced as after 3 hours

Compound: N^α -isocaproyl-des-(1-4)-[Ala^7, N^κ -(α-D-glucosyl-(1-4)-deoxyfructosyl)-Lys^11,18 ]salmon Calcitonin [Example 38]
- duration of action compared with the unmodified peptide [7]: much longer
- reduction in the calcium level in the blood after 6 hours [7]: still as pronounced as after 3 hours
